{"source": "paper PMC6576746", "about": "“Rational discovery of dual-indication multi-target PDE/Kinase inhibitor for precision anti-cancer therapy using structural systems pharmacology” (PLoS Computational Biology, 2019)", "assay_in_all_cases": "cells", "set-up_in_all_cases": "species or system panel of human cancer cell lines; Eurofins OncoPanel proliferation; nuclei count by high-content fluorescence imaging, 10-point dose response", "key": {"HPAF-II": {"tested_on": "HPAF-II", "details": "Homo sapiens, HPAF-II, 72 h, cell count, 3 days", "summary_of_the_method": "(§1)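 Cells in RPMI 1640/10% FBS or special medium received compound the day after seeding, with a time-zero plate; 3-day incubation at 37°C, 5% CO2. Nuclei imaged by fluorescence microscopy; 10 half-log doses from 100 μM, 0.1% DMSO. EC50, IC50, GI50 and activity area (0–10) from curve fits.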"}, "Hs 683": {"tested_on": "Hs 683", "details": "Homo sapiens, Hs 683, 72 h, cell count, 3 days", "summary_of_the_method": "as §1"}, "HUH-6 Clone 5": {"tested_on": "HUH-6 Clone 5", "details": "HUH-6-clone5, 72 h, cell count, 3 days", "summary_of_the_method": "as §1"}, "A-704": {"tested_on": "A-704", "details": "Homo sapiens, A704, 72 h, cell count, 3 days", "summary_of_the_method": "as §1"}, "NCI-H596": {"tested_on": "NCI-H596", "details": "Homo sapiens, NCI-H596, 72 h, cell count, 3 days", "summary_of_the_method": "as §1"}, "MG-63": {"tested_on": "MG-63", "details": "Homo sapiens, MG-63, 72 h, cell count, 3 days", "summary_of_the_method": "as §1"}, "SR": {"tested_on": "SR", "details": "Homo sapiens, SR, 72 h, cell count, 3 days", "summary_of_the_method": "as §1"}, "HEC-1-A": {"tested_on": "HEC-1-A", "details": "Homo sapiens, HEC-1-A, 72 h, cell count, 3 days", "summary_of_the_method": "as §1"}, "SUP-T1": {"tested_on": "SUP-T1", "details": "Homo sapiens, SUP-T1, 72 h, cell count, 3 days", "summary_of_the_method": "as §1"}, "EB2": {"tested_on": "EB2", "details": "Homo sapiens, EB2, 72 h, cell count, 3 days", "summary_of_the_method": "as §1"}, "AN3 CA": {"tested_on": "AN3 CA", "details": "Homo sapiens, AN3-CA, 72 h, cell count, 3 days", "summary_of_the_method": "as §1"}, "HOS": {"tested_on": "HOS", "details": "Homo sapiens, HOS, 72 h, cell count, 3 days", "summary_of_the_method": "as §1"}, "Colo 201": {"tested_on": "Colo 201", "details": "Homo sapiens, COLO 201, 72 h, cell count, 3 days", "summary_of_the_method": "as §1"}, "FaDu": {"tested_on": "FaDu", "details": "Homo sapiens, FaDu, 72 h, cell count, 3 days", "summary_of_the_method": "as §1"}, "[1]": {"details": "50% of maximum possible response"}}, "note": "pEC50, pIC50: −log10 of the molar value.", "data": [{"smiles": "C[C@@H]1CC(=O)NN=C1c1ccc(NN=C(C#N)C#N)cc1", "note": "[levosimendan]", "values": [{"measurement": "pIC50", "setting": "HPAF-II; [1]", "value": 4.18}, {"measurement": "GI50", "setting": "HPAF-II; corrected for time zero", "value": 54, "unit": "µM"}, {"measurement": "pEC50", "setting": "HPAF-II; curve inflection point", "value": 4.18}, {"measurement": "pIC50", "setting": "Hs 683; [1]", "value": "< 4.00"}, {"measurement": "GI50", "setting": "Hs 683; corrected for time zero", "value": "> 100", "unit": "µM"}, {"measurement": "pEC50", "setting": "Hs 683; curve inflection point", "value": 4.29}, {"measurement": "pIC50", "setting": "HUH-6 Clone 5; [1]", "value": 4.57}, {"measurement": "GI50", "setting": "HUH-6 Clone 5; corrected for time zero", "value": 20, "unit": "µM"}, {"measurement": "pEC50", "setting": "HUH-6 Clone 5; curve inflection point", "value": 4.57}, {"measurement": "pIC50", "setting": "A-704; [1]", "value": "< 4.00"}, {"measurement": "GI50", "setting": "A-704; corrected for time zero", "value": 64.7, "unit": "µM"}, {"measurement": "pEC50", "setting": "A-704; curve inflection point", "value": "< 4.00"}, {"measurement": "pIC50", "setting": "NCI-H596; [1]", "value": "< 4.00"}, {"measurement": "GI50", "setting": "NCI-H596; corrected for time zero", "value": "> 100", "unit": "µM"}, {"measurement": "pEC50", "setting": "NCI-H596; curve inflection point", "value": 4.26}, {"measurement": "pIC50", "setting": "MG-63; [1]", "value": 4.71}, {"measurement": "GI50", "setting": "MG-63; corrected for time zero", "value": 14.2, "unit": "µM"}, {"measurement": "pEC50", "setting": "MG-63; curve inflection point", "value": 4.77}, {"measurement": "pIC50", "setting": "SR; [1]", "value": 4.79}, {"measurement": "GI50", "setting": "SR; corrected for time zero", "value": 14.7, "unit": "µM"}, {"measurement": "pEC50", "setting": "SR; curve inflection point", "value": 4.81}, {"measurement": "pIC50", "setting": "HEC-1-A; [1]", "value": 4.46}, {"measurement": "GI50", "setting": "HEC-1-A; corrected for time zero", "value": 28.2, "unit": "µM"}, {"measurement": "pEC50", "setting": "HEC-1-A; curve inflection point", "value": 4.46}, {"measurement": "pIC50", "setting": "SUP-T1; [1]", "value": 4.81}, {"measurement": "GI50", "setting": "SUP-T1; corrected for time zero", "value": 11, "unit": "µM"}, {"measurement": "pEC50", "setting": "SUP-T1; curve inflection point", "value": 4.81}, {"measurement": "pIC50", "setting": "EB2; [1]", "value": 4.46}, {"measurement": "GI50", "setting": "EB2; corrected for time zero", "value": 24.5, "unit": "µM"}, {"measurement": "pEC50", "setting": "EB2; curve inflection point", "value": 4.46}, {"measurement": "pIC50", "setting": "AN3 CA; [1]", "value": 4.67}, {"measurement": "GI50", "setting": "AN3 CA; corrected for time zero", "value": 11.6, "unit": "µM"}, {"measurement": "pEC50", "setting": "AN3 CA; curve inflection point", "value": 4.67}, {"measurement": "pIC50", "setting": "HOS; [1]", "value": 4.94}, {"measurement": "GI50", "setting": "HOS; corrected for time zero", "value": 9.54, "unit": "µM"}, {"measurement": "pEC50", "setting": "HOS; curve inflection point", "value": 4.94}, {"measurement": "pIC50", "setting": "Colo 201; [1]", "value": 4.17}, {"measurement": "GI50", "setting": "Colo 201; corrected for time zero", "value": 53.8, "unit": "µM"}, {"measurement": "pEC50", "setting": "Colo 201; curve inflection point", "value": 4.17}, {"measurement": "pIC50", "setting": "FaDu; [1]", "value": 4.20}, {"measurement": "GI50", "setting": "FaDu; corrected for time zero", "value": 56.4, "unit": "µM"}, {"measurement": "pEC50", "setting": "FaDu; curve inflection point", "value": 4.20}]}]}
